31 molecules from US12331044B2, “Inhibitors of histone deacetylase useful for the treatment or prevention of HIV infection” (Merck Sharp & Dohme LLC, priority 2018, dated 2025) can be followed below.

Where two headings read alike, the source gives them in different places.

Experiment [1] addresses HDAC6 (Homo sapiens (Human), UniProt Q9UBN7).
The test system of experiment [2] is KARN cells (Jurkat 2C4). Briefly: cells. The note with it: Homo sapiens.
Where [3] appears, read: read-out: Karn EC50 nM 0.1% NHS, 0.1% normal human serum, luciferase induction, 2 μM SAHA = 100%.
Setting [4] is: read-out: Karn EC50 nM 5% NHS, 5% normal human serum, luciferase induction, 2 μM SAHA = 100%.

Sequence of HDAC6 (Q9UBN7 whole entry): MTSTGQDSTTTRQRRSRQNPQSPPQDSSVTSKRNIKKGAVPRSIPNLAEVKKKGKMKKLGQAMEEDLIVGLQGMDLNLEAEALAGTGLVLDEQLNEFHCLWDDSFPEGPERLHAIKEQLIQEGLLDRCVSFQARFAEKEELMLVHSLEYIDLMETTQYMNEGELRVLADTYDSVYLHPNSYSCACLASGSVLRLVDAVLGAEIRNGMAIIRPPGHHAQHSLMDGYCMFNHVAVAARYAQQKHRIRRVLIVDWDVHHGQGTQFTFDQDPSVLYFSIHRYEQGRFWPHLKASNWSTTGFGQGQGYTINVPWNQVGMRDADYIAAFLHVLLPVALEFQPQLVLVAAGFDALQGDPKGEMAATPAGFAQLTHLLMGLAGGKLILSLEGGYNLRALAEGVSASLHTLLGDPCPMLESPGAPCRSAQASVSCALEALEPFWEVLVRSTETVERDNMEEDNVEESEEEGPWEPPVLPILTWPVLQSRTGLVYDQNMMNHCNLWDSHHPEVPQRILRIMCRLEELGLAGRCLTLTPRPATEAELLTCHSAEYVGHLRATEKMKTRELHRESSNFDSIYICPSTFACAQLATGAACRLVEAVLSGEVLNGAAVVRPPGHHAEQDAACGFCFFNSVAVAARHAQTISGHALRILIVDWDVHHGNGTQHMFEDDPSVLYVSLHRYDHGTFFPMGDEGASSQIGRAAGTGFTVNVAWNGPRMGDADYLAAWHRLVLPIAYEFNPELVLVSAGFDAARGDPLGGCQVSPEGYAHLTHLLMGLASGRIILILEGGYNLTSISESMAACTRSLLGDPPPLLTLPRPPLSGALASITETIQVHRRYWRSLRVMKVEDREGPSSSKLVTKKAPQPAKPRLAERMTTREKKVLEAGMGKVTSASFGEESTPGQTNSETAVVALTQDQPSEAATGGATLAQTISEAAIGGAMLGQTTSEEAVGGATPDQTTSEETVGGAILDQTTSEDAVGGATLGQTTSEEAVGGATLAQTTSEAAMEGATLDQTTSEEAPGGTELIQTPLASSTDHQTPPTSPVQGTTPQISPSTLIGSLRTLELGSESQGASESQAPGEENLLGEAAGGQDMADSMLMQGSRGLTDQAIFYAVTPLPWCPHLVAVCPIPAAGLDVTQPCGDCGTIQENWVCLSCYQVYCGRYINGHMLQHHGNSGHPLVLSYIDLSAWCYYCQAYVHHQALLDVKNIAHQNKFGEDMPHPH

Turning to `COc1ncccc1-c1cnc([C@H](CCCCCC(=O)c2ncco2)NC(=O)C2CN(C)C2)o1` (stereo in doubt) [Example 104, N-(1-(5-(2-methoxypyridin-3-yl)oxazol-2-yl)-7-(oxazol-2-yl)-7-oxoheptyl)-1-methylazetidine-3-carboxamide], in experiment [1], the IC50 (commonly the concentration at which inhibition is half-maximal) is greater than 900 nM. Also, the EC50 (as a rule, the concentration giving half of the maximal effect) turned out to be 40 nM in experiment [2] (setting [3]) and 44 nM in experiment [2] (setting [4]).
In experiment [1], `O=C(CCCCC[C@H](NC(=O)c1cncs1)c1nc(-c2ccc(F)cc2)c[nH]1)c1ncco1` [Example 2, (S)-N-(1-(4-(4-fluorophenyl)-1H-imidazol-2-yl)-7-(oxazol-2-yl)-7-oxoheptyl)thiazole-5-carboxamide] displayed an IC50 of 45000 nM. Also, the concentration giving a half-maximal response (EC50) in experiment [2] (setting [3]) worked out at 44 nM; in experiment [2] (setting [4]), 97 nM.
In experiment [1], `CN1CCC(C(=O)N[C@@H](CCCCCC(=O)c2ncco2)c2nc(-c3ccc(F)cc3)c[nH]2)CC1` [Example 3, (S)-N-(1-(4-(4-fluorophenyl)-1H-imidazol-2-yl)-7-(oxazol-2-yl)-7-oxoheptyl)-1-methylpiperidine-4-carboxamide] registered an IC50 of 45000 nM. Moreover, the EC50 in experiment [2] (setting [3]) is 18 nM; in experiment [2] (setting [4]), 26 nM.
For `O=C(CCCCC[C@H](NC(=O)[C@H]1CC12CCOCC2)c1nc(-c2ccc(F)cc2)c[nH]1)c1ncco1` [Example 5, N-((S)-1-(4-(4-fluorophenyl)-1H-imidazol-2-yl)-7-(oxazol-2-yl)-7-oxoheptyl)-6-oxaspiro[2.5]octane-1-carboxamide] the same measures were 45000 nM, 63 nM and 130 nM.
Molecule `O=C(N[C@@H](CCCCCC(=O)c1nccs1)c1nc(-c2ccc(F)cc2)c[nH]1)c1cncs1` [Example 7, (S)-N-(1-(4-(4-fluorophenyl)-1H-imidazol-2-yl)-7-oxo-7-(thiazol-2-yl)heptyl)thiazole-5-carboxamide] had an IC50 in experiment [1] of 45000 nM. For the same molecule, the concentration giving a half-maximal response (EC50) in experiment [2] (setting [3]) is 23 nM; in experiment [2] (setting [4]), 8400 nM.
For the molecule `Cc1coc(C(=O)CCCCC[C@H](NC(=O)C2CCN(C)CC2)c2nc(-c3ccc(F)cc3)c[nH]2)n1` [Example 8, (S)-N-(1-(4-(4-fluorophenyl)-1H-imidazol-2-yl)-7-(4-methyloxazol-2-yl)-7-oxoheptyl)-1-methylpiperidine-4-carboxamide], 15000 nM corresponded to half-maximal inhibition in experiment [1] (IC50).
In experiment [1], `COc1nc(C)ccc1-c1c[nH]c([C@@H](N)CCCCCC(=O)c2ncco2)n1` [Example 11] came in with an IC50 of 45000 nM. Moreover, the figures for the EC50 in experiment [2] (setting [3]) and in experiment [2] (setting [4]) were 620 nM and 670 nM, respectively.
For `COc1cc2nc(C)ccc2cc1-c1c[nH]c([C@@H](N)CCCCCC(=O)c2ncco2)n1` [Example 12, (S)-7-amino-7-(5-(7-methoxy-2-methylquinolin-6-yl)-1H-imidazol-2-yl)-1-(oxazol-2-yl)heptan-1-one] the same measures were 8300 nM, 66 nM and 80 nM.
For `COc1nc2cnccc2cc1-c1c[nH]c([C@@H](N)CCCCCC(=O)c2ncco2)n1` [Example 13] the same measures were 45000 nM, 94 nM and 140 nM.
For `CN(C)c1ccc2cc(-c3cnc([C@@H](N)CCCCCC(=O)c4ncco4)[nH]3)ccc2n1` [Example 18] the same measures were greater than 1500 nM, 93 nM and 130 nM.
Molecule `N[C@@H](CCCCCC(=O)c1ncco1)c1ncc(-c2ccc(-c3cnccn3)cc2)[nH]1` [Example 20] displayed an IC50 in experiment [1] of 45000 nM. The half-maximal effective concentration (EC50) in experiment [2] (setting [3]) came out at 450 nM; in experiment [2] (setting [4]) it was 340 nM.
For `Cn1c(=O)ccc2cc(-c3c[nH]c([C@@H](N)CCCCCC(=O)c4ccon4)n3)ccc21` [Example 32, (S)-6-(2-(1-amino-7-(isoxazol-3-yl)-7-oxoheptyl)-1H-imidazol-4-yl)-1-methylquinolin-2(1H)-one] the same measures were 15000 nM, 26 nM and 35 nM.
`COc1cc2c(ccc(=O)n2C)cc1-c1cnc([C@@H](N)CCCCCC(=O)c2ccon2)[nH]1` [Example 35, (S)-6-(2-(1-amino-7-(isoxazol-3-yl)-7-oxoheptyl)-1H-imidazol-5-yl)-7-methoxy-1-methylquinolin-2(1H)-one] had a concentration for half-maximal inhibition (IC50) in experiment [1] of 15000 nM. Also, the EC50 in experiment [2] (setting [3]) amounted to 72 nM; in experiment [2] (setting [4]), 50 nM.
`Cc1ccc2cc(-c3c[nH]c([C@H](CCCCCC(=O)c4ccon4)NC(=O)C4CN(C)C4)n3)ccc2n1` [Example 43] returned a 50% inhibitory concentration (IC50) in experiment [1] of 1800 nM. The values for the EC50 in experiment [2] (setting [3]) and in experiment [2] (setting [4]) were 8.5 nM and 14 nM, respectively.
On to `CN(C)CC(=O)N[C@@H](CCCCCC(=O)c1ccon1)c1nc(-c2ccccc2F)c[nH]1` [Example 47], for which the IC50 in experiment [1] amounted to 9100 nM. The EC50 was found to be 3.7 nM in experiment [2] (setting [3]) and 10 nM in experiment [2] (setting [4]).
As to `Cc1cc(C(=O)CCCCC[C@H](NC(=O)C2CN(C)C2)c2nc(-c3ccccc3F)c[nH]2)no1` [Example 59], the midpoint of inhibition in experiment [1], the IC50, lay at 45000 nM.
As to `CC(C(=O)N[C@@H](CCCCCC(=O)c1ccon1)c1ncc(-c2ccccc2F)[nH]1)N(C)C` (some centres unmarked) [Example 61], in experiment [1], the IC50 is greater than 900 nM. The EC50 came out at 3.6 nM in experiment [2] (setting [3]) and 5.8 nM in experiment [2] (setting [4]).
Regarding `CN(C)C1(C(=O)N[C@@H](CCCCCC(=O)c2ccon2)c2ncc(-c3ccccc3F)[nH]2)CC1` [Example 62], the IC50 in experiment [1] was greater than 900 nM. Further, the EC50 in experiment [2] (setting [3]) came out at 50 nM; in experiment [2] (setting [4]) it was 100 nM.
In experiment [1], `CN(C)CC(=O)N[C@@H](CCCCCC(=O)c1ncco1)c1[nH]c(-c2ccc(F)cc2)nc1Cl` [Example 90] came in with an IC50 of 26000 nM. Besides, the EC50 came out at 14 nM in experiment [2] (setting [3]) and 34 nM in experiment [2] (setting [4]).
`N[C@@H](CCCCCC(=O)c1ccon1)c1ccn(-c2ccc(F)cc2)n1` [Example 120, (7S)-7-amino-7-[1-(4-fluorophenyl)-1H-pyrazol-3-yl]-1-isoxazol-3-ylheptan-1-one] yielded an IC50 in experiment [1] of 45000 nM.
Same read-out and setting: under `NC(CCCCCC(=O)c1ccon1)c1cnn(-c2ccc(F)cc2)n1` (centres unmarked) [Example 123, 7-amino-7-[2-(4-fluorophenyl)-2H-1,2,3-triazol-4-yl]-1-isoxazol-3-ylheptan-1-one] stands 45000 nM.
In experiment [1], `Cn1cc2cc(-c3cc([C@@H](N)CCCCCC(=O)c4ccon4)no3)ccc2n1` [Example 126, (7S)-7-amino-1-isoxazol-3-yl-7-[5-(2-methyl-2H-indazol-5-yl)isoxazol-3-yl]heptan-1-one] returned an IC50 greater than 900 nM. Besides, the results for the concentration giving a half-maximal response (EC50) in experiment [2] (setting [3]) and in experiment [2] (setting [4]) were 170 nM and 250 nM, respectively.
For `N[C@@H](CCCCCC(=O)c1ncco1)c1ncc(-c2cc(OC3CCC3)ccc2F)[nH]1` [Example 130, (7S)-7-amino-7-{5-[5-(cyclobutyloxy)-2-fluorophenyl]-1H-imidazol-2-yl}-1-(1,3-oxazol-2-yl)heptan-1-one] the same measures were greater than 900 nM, 1600 nM and 4600 nM.
On to `N#Cc1cnc(-c2cnc([C@@H](N)CCCCCC(=O)c3ncco3)[nH]2)cn1` [Example 132, 5-{2-[(1S)-1-amino-7-(1,3-oxazol-2-yl)-7-oxoheptyl]-1H-imidazol-5-yl}pyrazine-2-carbonitrile], for which the EC50 in experiment [2] (setting [3]) came to 25000 nM; in experiment [2] (setting [4]) it was 30000 nM.
For `N#Cc1cncc(-c2cnc([C@@H](N)CCCCCC(=O)c3ncco3)[nH]2)n1` [Example 133, 6-{2-[(1S)-1-amino-7-(1,3-oxazol-2-yl)-7-oxoheptyl]-1H-imidazol-5-yl}pyrazine-2-carbonitrile] the same measures were 23000 nM and 25000 nM.
In the case of `N[C@@H](CCCCCC(=O)c1ncco1)c1ncc(-c2cc(OC(F)(F)F)ccc2F)[nH]1` [Example 142, (7S)-7-amino-7-{5-[2-fluoro-5-(trifluoromethoxy)phenyl]-1H-imidazol-2-yl}-1-(1,3-oxazol-2-yl)heptan-1-one], in experiment [1], the IC50 is greater than 900 nM. Also, the EC50 amounted to 1200 nM in experiment [2] (setting [3]) and 270 nM in experiment [2] (setting [4]).
For `COCC(=O)N[C@@H](CCCCCC(=O)c1ncco1)c1ncc(-c2cc3ccccc3nc2OC)[nH]1` [Example 147, 2-methoxy-N-[(1S)-1-[5-(2-methoxyquinolin-3-yl)-1H-imidazol-2-yl]-7-(1,3-oxazol-2-yl)-7-oxoheptyl]acetamide] the same measures were 15000 nM, 50 nM and 490 nM.
For `COc1nc2ccccc2cc1-c1cnc([C@H](CCCCCC(=O)c2ncco2)NC(=O)C(C)(F)F)[nH]1` [Example 148, 2,2-difluoro-N-[(1S)-1-[5-(2-methoxyquinolin-3-yl)-1H-imidazol-2-yl]-7-(1,3-oxazol-2-yl)-7-oxoheptyl]propanamide] the same measures were 3400 nM, 54 nM and 450 nM.
For `CCN1CCC2(CC1)C[C@@H]2C(=O)N[C@@H](CCCCCC(=O)c1ccon1)c1cc(-c2ccccc2F)on1` [Example 175, (1S)-6-ethyl-N-{(1S)-1-[5-(2-fluorophenyl)isoxazol-3-yl]-7-isoxazol-3-yl-7-oxoheptyl}-6-azaspiro[2.5]octane-1-carboxamide], the EC50 in experiment [2] (setting [3]) stood at 13 nM; in experiment [2] (setting [4]), 19 nM.
For `CCN1CCC2(CC1)C[C@@H]2C(=O)N[C@@H](CCCCCC(=O)c1ccon1)c1cc(-c2ccc3nn(C)cc3c2)on1` [Example 176, (1S)-6-ethyl-N-{(1S)-7-isoxazol-3-yl-1-[5-(2-methyl-2H-indazol-5-yl)isoxazol-3-yl]-7-oxoheptyl}-6-azaspiro[2.5]octane-1-carboxamide] the same measures were 14 nM and 13 nM.
As for `CN1CCC2(CC1)CC(C(=O)N[C@@H](CCCCCC(=O)c1ccon1)c1cc(-c3ccc4nn(C)cc4c3)on1)=NO2` [Example 177, N-{(1S)-7-isoxazol-3-yl-1-[5-(2-methyl-2H-indazol-5-yl)isoxazol-3-yl]-7-oxoheptyl}-8-methyl-1-oxa-2,8-diazaspiro[4.5]dec-2-ene-3-carboxamide], the EC50 came out at 33 nM in experiment [2] (setting [3]) and 55 nM in experiment [2] (setting [4]).
